Values quoted from earlier work in PMC6482886 (Chemical Science, 2019).

Key:
hDMX = target: T1, hDMX (Homo sapiens, UniProt O15151)
T1 sequence (O15151 1-392): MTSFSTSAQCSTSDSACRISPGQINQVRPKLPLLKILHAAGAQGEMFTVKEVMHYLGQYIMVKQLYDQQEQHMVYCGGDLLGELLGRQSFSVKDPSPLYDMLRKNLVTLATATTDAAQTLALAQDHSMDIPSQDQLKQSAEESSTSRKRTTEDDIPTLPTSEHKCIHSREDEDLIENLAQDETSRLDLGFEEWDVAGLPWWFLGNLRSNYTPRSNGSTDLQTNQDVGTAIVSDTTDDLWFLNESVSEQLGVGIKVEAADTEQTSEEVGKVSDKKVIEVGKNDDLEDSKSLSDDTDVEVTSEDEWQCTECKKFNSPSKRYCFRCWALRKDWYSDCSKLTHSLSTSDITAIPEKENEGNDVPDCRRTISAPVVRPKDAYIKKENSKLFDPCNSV

Row | Structure (SMILES) | cellular IC50 / cellular activity reported in the literature | binding affinity to hDMX compared with p53 (hDMX)
1 | N#Cc1c2ccc(N)cc2nc2cc(N)ccc12 [CTX1] | tens to hundreds of micromolar range | 
2 | CCOc1cc(/C=C2/C(=O)N(c3ccccc3)N=C2C)cc(Cl)c1OCC(=O)OC [SJ-172550] |  | less affinity to hDMX than p53
